Columns and labels:
[1] = test system: intein complex of intein-C tagged S1-RBD (26 kDa) and intein-N ligand R49-358132; assay: Example 6: intein cleavage at pH 7, highly glycosylated target S1-RBD; assay type: biochemical, SARS-CoV-2; conditions: versus Cleavage B.1
[2] = test system: intein complex of 13 kDa intein-C tagged target and intein-N ligand R46-358132; assay: Example 4: intein cleavage with 10 min residence time during elution, with and without pH shift; assay type: biochemical
Method: The intein-N resin prototype column, carrying a third generation of intein-N ligand (R46-358132) was used for five intein purifications. The improvement of intein cleavage through additives such as imidazole (Examples 2, 3) was studied under longer residence times, with and without introducing a pH shift during the elution phase.
One reference run (cycle 1) was accomplished as a reference run for that study, using 5 minutes residence time during the whole purification process (0.2 ml/min flow rate). Further, the intein-N resin prototype column was used in additional four consecutive cycles (cycles 2-5) where a combinatorial method flow rate was given. […]
Depending on the used buffer system during the elution phase, the amount of eluted tagless 13 kDa target was about 0.40-0.91 mg. […] The total intein-C bound protein was calculated using the eluted target and the remaining intein-C target, that was released during the cleaning phase together with the remained intein-C fragments. The amount of eluted target during elution step 1 and step 2 was calculated for all five cycles using the A280-Absorbance and the molecular extinction coefficient of the cleaved target.
The yield of tagless released target during the elution phase was calculated per total bound amount of intein-C target. […]

[3] = test system: intein complex of intein-C tagged hEPO (19 kDa) and intein-N ligand R46-358132; assay: Example 6: intein cleavage at pH 7, highly glycosylated target hEPO; assay type: biochemical, human; conditions: versus Cleavage B.1
[4] = test system: intein complex of 13 kDa intein-C tagged target (Thioredoxin) and intein-N ligand R44-358132; assay: Example 2-1: intein cleavage / tagless target release on intein-N column, Cleavage Buffer pH 7 with additives; assay type: biochemical, Escherichia coli (strain K12); conditions: 13 kDa target, versus Cleavage B.1
[5] = test system: intein complex of 13 kDa intein-C tagged target and intein-N ligand R44-358132; assay: Example 3: intein cleavage under capture conditions (pH 9), no pH shift; assay type: biochemical; conditions: 13 kDa target, versus Capture A.1
Method: A 13 kDa intein-C tagged target was pre-purified using Strep-II Tag purification as described in example 1 and was diluted to a concentration of 1 mg/mL. The intein-N resin prototype column was equilibrated with 10 CV Capture Buffer (100 mM Tris, 200 mM NaCl, pH 9). The pre-purified intein-C target was loaded with 5 CV to the prototype column under capture conditions (100 mM Tris, 200 mM NaCl, pH 9). The impurities were washed out with 10 CV Capture Buffer (100 mM Tris, 200 mM NaCl, pH 9). The Capture Buffer designated A.1 (100 mM Tris, 200 mM NaCl, pH 9) was used as a reference in this setup. […]
The two different Capture Buffers A.1 and A.2 were used in two consecutive purification cycles. The A280-Absorbance chromatograms were recorded and analyzed to determine the amount of protein recovered from the elution and the CIP phase.
The amount of eluted target recovered from the elution step 1 and elution step 2 were determined using the A280-Absorbance and the molecular extinction coefficient of the cleaved target. The total bound amount of intein-C tagged protein was calculated using the eluted target, and the remaining intein-C target, that was released during the cleaning phase together with the remained intein-C fragments. The yield of tagless released target during the elution phase was calculated per total bound intein-C target. […]

`c1c[nH]cn1` [imidazole] was tested. Which “% improvement in yield (total)” value [1] did it give?
The value was 1.95%.

What about the “elution amount in A280 chromatogram compared with buffer without additive” value ([2]; 13 kDa target, elution 1 and 2, FIG. 9) of the same compound?
Its value is “higher elution amount”.

What about the “% improvement in yield (E1)” value ([2]; cycle 3 (B.2) versus cycle 1 (B.1, 0.2 ml/min), cycle 5 (A.2) versus cycle 4 (A.1)) of the same compound?
Its value is 12.51%.

What about the “% improvement in yield (total)” value [3] of the same compound?
The value was 12.22%.

And the “% improvement in yield (E1)” value [4]?
The value was “up to 11.15%”.

What about the “% improvement in yield (E1)” value [5] of the same compound?
The value was 15.15%.

From patent publication US20230391821A1, “METHODS FOR TARGET RELEASE FROM INTEIN COMPLEXES” (MERCK PATENT GMBH, priority 2020, published 2023)
